Measurements taken from US20070274916A1, “Method for Identifying Compounds that Affect Expression of Tryptophan Hydroxylase Isoform 2” (priority 2003, published 2007).
“Also recorded” adds a separate entry of the source.

What was measured:
Format in all cases: in vivo, mouse
TPH2 mRNA [1] = experiment: TPH2 mRNA in murine DRN by in situ hybridization histochemistry; conditions: for reduction of TPH2 mRNA levels in DRN (densitometry): ovariectomized female mice, FIG. 13B
TPH2 mRNA [2] = experiment: TPH2 mRNA levels in murine raphe slice preparation of ovariectomized female mice by real-time RT-PCR
Source text: Female mice (13 to 16 wks of age) were ovariectomized (C57BL/6s from Charles River; ER Knockout animals from Taconic). Animals were fed a soy-free rodent chow and allowed a minimum of one week to recuperate from surgery and shipping. […] Approximately six hours following the fourth dose, mice were deeply anesthetized with ketamine/xylazine and brains were removed from the skull, placed ventral side up in a mouse brain block on ice, and ice-cold razor blades were inserted into the block at 1 mm intervals. The caudal extent of the hypothalamus was used as an anatomical marker for the placement of the first razor blade, and 4 blades were placed in sequential slots, caudally. The four sections were examined and the two that encompassed the greatest extent of the dorsal raphe were placed in a tube containing […] (Ambion, Austin, Tex.) and placed at 4° C. overnight. Brain slices were removed from […] after 24 hours and stored at −80° C. in fresh tubes.
Two TPH2 primer and probe sets were generated for use in detecting TPH2 by real-time RT-PCR. Murine TPH2 forward primers were mTPH2-514F and mTPH2-1270F, their corresponding sequences are 5′-[…]-3′ (SEQ ID NO:7; corresponding to nucleotides 514 to 535 of the nucleotide sequence encoding TPH2) and 5′-[…]-3′ (SEQ ID NO:8; corresponding to nucleotides 1270 to 1290 of the nucleotide sequence encoding TPH2), respectively. The murine TPH2 reverse primers were mTPH2-585R and mTPH2-1344R, their corresponding sequences are 5′-[…]-3′ (SEQ ID NO:9; corresponding to nucleotides 567 to 585 of the nucleotide sequence encoding TPH2) and 5′-[…]-3′ (SEQ ID NO:10; corresponding to nucleotides 1324 to 1344 of the nucleotide sequence encoding TPH2), respectively. The murine TPH2 probes were mTPH2-565T and mTPH2-1292T, their corresponding sequences are: 5′-[…]-3′ (SEQ ID NO:11; corresponding to nucleotides 539 to 565 of the nucleotide sequence encoding TPH2) and 5′-[…]-3′ (SEQ ID NO:12; corresponding to nucleotides 1292 to 1317 of the nucleotide sequence encoding TPH2), respectively. The probes were labeled at the 5′ end with FAM and the 3′ end with TAMRA.
Isolation of total RNA from mouse raphe slices for real-time PCR analysis using the TAQMAN ABI PRISMS 7700 Detection System, Applied Biosystems, Foster City, Calif. was as follows. Samples were stored in […] at 4° C. overnight followed by removal of […] and storage at −80° C. until isolation of the total RNA (2 slices weigh 25 to 50 mg). Slices were removed from −80° C. and placed in 1.0 mL TRIZOL Reagent in FASTPREP processing tubes. Slices were homogenized with one pass at setting 6 for 30 seconds in FASTPREP 120 homogenizer using LYSING MATRIX D tubes with bead matrix followed by 20 seconds at setting 6 after all samples had been processed. Samples were set at room temperature for 5 minutes to allow for complete dissociation of nucleoprotein complexes followed by centrifugation of the samples at 12,000×g for 5 minutes at 4° C. Homogenates were transferred to 1.5 mL; microcentrifuge tubes and 100 μL BCP (Bromo-3-chloropropane) was added. Samples were vortexed for 15 seconds and set at room temperature for 2 to 3 minutes. Samples were centrifuged at 12,000×g for 15 minutes at 4° C. The aqueous layer was removed and placed in a new RNAse-free sterile 1.5 mL microcentrifuge tube. Five μL of 5 mg/μL glycogen was added to each sample and the samples were vortexed. Five hundred μL of isopropanol was added to each sample. The samples were vortexed for 15 seconds, set at room temperature 10 minutes, followed by centrifugation at 12,000×g for 15 minutes at 4° C. Supernatants were decanted and pellets washed with 500 μL ice cold 75% ethanol.

TPH2 mRNA [3] = experiment: TPH2 mRNA levels in raphe slice preparations from intact male mice by real-time RT-PCR
Method: Ovariectomized C57/BL6 female mice (13 to 16 wks of age) were from Charles River Laboratories and intact C57/BL6 male mice (13 to 16 wks of age) were from Taconic Laboratories. Animals were fed a soy-free rodent chow and allowed a minimum of one week to recuperate from surgery and shipping. Mice were dosed subcutaneously in the morning (once daily for 4 days) with 0.1 cc of vehicle (sesame oil) or compound (dose is indicated for each experiment). Approximately six hours following the fourth dose, mice were deeply anesthetized with ketamine/xylazine.
For real-time RT-PCR analyses brains were removed from the skull, placed ventral side up in a mouse brain block on ice, and ice-cold razor blades are inserted into the block at 1 mm intervals. The caudal extent of the hypothalamus was used as an anatomical marker for the placement of the first razor blade, and 4 blades are placed in sequential slots, caudally. The four sections are examined and the two that encompass the greatest extent of the dorsal raphe are placed in a tube containing RNA-later and placed at 4° C. overnight. Brain slices were removed from RNALATER (Ambion) after 24 hr and stored at −80° C. in fresh tubes. An n of seven animals was used per treatment group for real-time RT-PCR studies. For in situ hybridization histochemistry brains are removed from the skull and placed ventral side up on powdered dry ice and frozen brains are stored at −80° C. until sectioning. An n of 5 to 6 animals was used per treatment group for in situ hybridization histochemistry analyses.
The murine TPH2 primers were mTPH2-514F and mTPH2-585R and the murine TPH2 probe was mTPH2-565T. mTPH2-565T was labeled with the fluorescent dye FAM and the quencher TAMRA.
Isolation of total RNA from murine raphe slices for TAQMAN analysis has been described in Example 2. Genomic DNA was removed from the total RNA samples using the DNA-FREE kit (Ambion) and cDNA synthesis performed using Multiscribe RT and the TaqMan Gold RT reagents (ABI). Reverse transcription was halted by the addition of EDTA. Samples were transferred to a storage plate and stored at −20° C.
Real-time PCR analyses using TAQMAN was as follows. A 2.5 μL of cDNA was added to each well of a 96well plate with 22.5 μl of TaqMan® reaction mix (1× Universal Master Mix (ABI), 20 nM forward and reverse 18S rRNA control primers, and 100 nM 18S rRNA control probe (ABI) and 300 nM mTPH2-514F and mTPH2-585R primers, 200 nM mTPH2-565T probe. Samples were run on an ABI PRISM 7700 Sequence Detection Instrument (Applied Biosystems (ABI), Foster City, Calif.) and collected data was analyzed using Merck Biometrics TAQMAN Plus program and statistical significance determined using a one-way ANOVA (CMG, Merck Biometrics).

## C[C@]12CC[C@@H]3c4ccc(O)cc4CC[C@H]3[C@@H]1CC[C@@H]2O [17β-estradiol]
TPH2 mRNA [1]; 0.2 mpk s.c. once daily for four days, ovariectomized mice, TPH2c riboprobe, FIG. 5B
  effect on TPH2 mRNA in the DRN: no apparent effect
TPH2 mRNA [2]; 0.025 to 0.2 mpk s.c. once daily for four days, FIG. 4C
  effect on expression of TPH2 mRNA in raphe slice: no apparent effect
TPH2 mRNA [3]; dose not stated
  effect on TPH2 mRNA levels: no effect

## C[C@@H]1C[C@H]2[C@@H]3CCC4=CC(=O)C=C[C@]4(C)[C@@]3(F)[C@@H](O)C[C@]2(C)[C@@]1(O)C(=O)CO [dexamethasone]
TPH2 mRNA [1]; 3 mg/kg s.c. once daily for four days
  reduction of TPH2 mRNA levels in DRN (densitometry): 28%
TPH2 mRNA [1]; 10 mg/kg s.c. once daily for four days
  reduction of TPH2 mRNA levels in DRN (densitometry): 36%
TPH2 mRNA [2]; 0.1 mg/kg s.c. once daily for four days, FIG. 14
  reduction in TPH2 mRNA levels: 23%
TPH2 mRNA [2]; 1 mg/kg once daily for four days, FIG. 14
  reduction in TPH2 message levels: 30%
TPH2 mRNA [2]; 3 mg/kg s.c. once daily for four days, FIG. 14
  reduction in TPH2 mRNA levels: 44%
TPH2 mRNA [2]; dexamethasone 3 mg/kg once daily for four days, FIG. 9
  reduction in TPH2 mRNA levels: 40%
TPH2 mRNA [3]; 1 mpk once daily for four days, FIG. 15
  reduction in TPH2 mRNA levels: 26%

## CC#C[C@]1(O)CC[C@H]2[C@@H]3CCC4=CC(=O)CCC4=C3[C@@H](c3ccc(N(C)C)cc3)C[C@@]21C [mifepristone]
TPH2 mRNA [2]; RU486 10 mpk once daily, TPH2-514 or TPH2-1270 primer/probe set, FIG. 7, 10 mg/kg
  effect on TPH2 mRNA expression compared to vehicle: decrease; also recorded: significant reduction
TPH2 mRNA [2]; RU486 20 mpk once daily, TPH2-514 primer/probe set, FIG. 8, 20 mg/kg
  effect on TPH2 mRNA expression: further reduction; also recorded: significant reduction
TPH2 mRNA [2]; alone and mixed with dexamethasone, Example 2
  glucocorticoid agonist/antagonist character shown by TPH2 mRNA expression: mixed or partial agonist
TPH2 mRNA [2]; co-administered with 3 mg/kg dexamethasone, ovariectomized female mice, FIG. 9, 3 mg/kg
  effect on the dexamethasone reduction of TPH2 mRNA levels: blocked; also recorded: antagonizes
TPH2 mRNA [2]; mifepristone alone, 20 mg/kg, FIG. 9
  reduction in TPH2 mRNA levels: 28%
TPH2 mRNA [3]; co-administered with 1 mg/kg dexamethasone, FIG. 15, 1 mg/kg
  effect on the dexamethasone reduction of TPH2 mRNA levels: blocked; also recorded: antagonizes
TPH2 mRNA [3]; mifepristone alone, 30 mg/kg
  effect on TPH2 message levels: no effect
